Assay results from PMC4411898, “Impact of kinesin Eg5 inhibition by 3,4-dihydropyrimidin-2(1H)-one derivatives on various breast cancer cell features” (BMC Cancer, 2015).
Read-outs that look alike come from different tables or passages of the source.

What was measured:
MCF-7 cells [1] = assay: α-tubulin immunostaining, spindle formation; format: cell-based, human; details: for Monoastral Spindle (%) 24 h / Bipolar Spindle (%) 24 h / Bipolar Spindle (%) 48 h / Monoastral Spindle (%) 48 h: n = 300 dividing cells; for Monoastral Spindle (%) 24 h: monastrol 0.1 mM; for Bipolar Spindle (%) 24 h / Bipolar Spindle (%) 48 h / Monoastral Spindle (%) 48 h: concentrations as E14; for Bipolar Spindle (%) 48 h / Monoastral Spindle (%) 48 h: MCF-7, 48 h
Protocol: Aliquots of 7 × 10^4 MCF-7 cells were seeded onto 12 mm round glass coverslips placed in the base of each well of a 24-well plate. After adhesion, cells were treated for 24 and 48 h with the pre-selected compounds at their maximum non-cytotoxic concentrations to normal cells or incubated with culture medium only for the same duration (negative control). Cells were washed with PBS, fixed with 3.7% formaldehyde, permeabilized with 0.1% Triton X-100 and blocked in PBS supplemented with 1% skimmed milk, 2.5% bovine serum albumin (BSA) and 8% fetal bovine serum (FBS) at room temperature. Cells were incubated overnight with mouse anti-α-tubulin antibody (1:500) at 4°C, followed by incubation with a secondary antibody: Alexa Fluor 488 rabbit anti-mouse IgG (1:400), for 1 hour at 37°C. Nuclei were stained with 300 nM DAPI. The coverslips were mounted with ProLong Gold Antifade and specimens observed under a laser scanning confocal microscope.
Table S1. Quantification of monopolar spindles occurred as a result of treatment with DHPM derivatives. MCF-7 control cells or cells treated for 24 or 48 h with 4m (1 mM), […]
antibody. The percentage of dividing cells showing presence of monoastral and bipolar spinles formation determined (n = 300).
Experimental Group Monoastral Spindle (%) Bipolar Spindle (%)

HUVEC cells = assay: HUVEC tube formation assay; format: cell-based, human; details: 11 h; 30 μM, IC50 or 300 μM, mainly 300 μM
Protocol: The anti-angiogenic potential of DHPMs was tested using an in vitro Angiogenesis Assay Kit according to the manufacturer’s instructions. […] These plates were incubated for 11 hours at 37°C, in 5% CO2. Wells were subsequently photographed using an inverted light microscope at 20x magnification and tube formation analyzed. Seven fields per group of 3 independent experiments were quantified by pattern recognition according to manufacturer’s instructions.

MCF-7 cells [2] = assay: MTT cell viability assay, MCF-7; format: cell-based, human; details: for IC50: Homo sapiens, read-out: IC50 MCF-7
Protocol: (§1) Absorbance readings were measured by a spectrophotometer. Cell viability was normalized to control (vehicle only).

MCF-7 cells [3] = assay: CD44+/CD24- expression analysis, MCF-7; format: cell-based, human; details: 24 h; for CD44-/CD24- subpopulation, MCF-7 (mean ± SEM): 4m 1.0 mM, 4bt 0.8 mM, 4p 0.4 mM, 4bc 1.0 mM, 4x 0.8 mM, monastrol 1.0 mM; for CD44+/CD24+ subpopulation, MCF-7 (mean ± SEM) / CD44-/CD24+ subpopulation, MCF-7 (mean ± SEM) / CD44+/CD24- subpopulation, MCF-7 (mean ± SEM): concentrations as E28; for CD44+/CD24- subpopulation, MCF-7 (mean ± SEM): control 0.38 ± 0.18
Protocol: (§2) For proliferation assays, cells were treated with IC50 concentrations of each compound. Adherent and floating cells were harvested at the same tube and pelleted by centrifugation at 300 g for 5 minutes and stained. Data acquisition of these two fractions put together was performed on a FACSCalibur flow cytometer using CellQuest software and analysed using the FloJo Software. Expression level of CD44 and CD24 in treated and control MCF-7 or MDA-MB-231 cells was measured after 24 h of treatment.

MCF-7 cells [4] = assay: Cell cycle analysis (PI), MCF-7; format: cell-based, human; details: 4m 1 mM, 4bt 0.8 mM, 4p 0.4 mM, 4bc 1.0 mM, 4x 0.8 mM
Protocol: For proliferation assays, cells were treated with IC50 concentrations of each compound. Adherent and floating cells were harvested at the same tube and pelleted by centrifugation at 300 g for 5 minutes and stained. Data acquisition of these two fractions put together was performed on a FACSCalibur flow cytometer using CellQuest software and analysed using the FloJo Software. Control and DHPM-treated cells were harvested at 24, 48 and 72 h, resuspended in ice-cold PBS and fixed with 70% ethanol on ice. Cells were then washed with PBS, harvested and incubated with propidium iodide solution (0.1% Triton X-100, 10 μg/mL propidium iodide, 100 μg/mL DNase free RNase) for 10 min at 37°C. For analysis of cell populations in each cell cycle phase, the sub-G1 picks were excluded and the plots were generated by cell cycle platform data analysis by the FlowJo Software.

MDA-MB-231 cells [5] = assay: MTT cell viability assay, MDA-MB-231; format: cell-based, human; details: for IC50: Homo sapiens, read-out: IC50 MDA-MB-231
Protocol: as §1

MCF-7 cells [6] = assay: Morphological alterations under inverted light microscope, MCF-7; format: cell-based, human; details: 72 h, maximum non-cytotoxic concentration to normal cells
Protocol: Figure 2 DHPM derivatives cause severe morphological alterations on breast cancer cells. MCF-7 and MDA-MB-231 cells were treated with the maximum non-cytotoxic concentration to normal cells for 72 h and morphological alterations analyzed under an inverted light microscope. Cells with elongated morphology, adherent to the surface and normal size are shown by arrows. Cells with size reduction, absence of focal adhesion points, rounded morphology and detached from the surface where they had been seeded are shown by arrowheads.

MCF-7 cells [7] = assay: Apoptosis and necrosis assay (Annexin-V/PI flow cytometry), MCF-7; format: cell-based, human; details: 72 h; 4m 1.0 mM, 4bt 0.8 mM, 4p 0.4 mM, 4bc 1.0 mM, 4x 0.8 mM
Protocol: (§3) For proliferation assays, cells were treated with IC50 concentrations of each compound. Adherent and floating cells were harvested at the same tube and pelleted by centrifugation at 300 g for 5 minutes and stained. Data acquisition of these two fractions put together was performed on a FACSCalibur flow cytometer using CellQuest software and analysed using the FloJo Software. Untreated control cells and DHPMs-treated for 72 h cell samples were stained with Annexin-V-FITC or Annexin-V-Alexa Fluor® 680 and propidium iodide according to the manufacturer’s instructions.

MDA-MB-231 cells [8] = assay: CD44+/CD24- expression analysis, MDA-MB-231; format: cell-based, human; details: 24 h; for CD44-/CD24- subpopulation, MDA-MB-231 (mean ± SEM): 4m 1.0 mM, 4bt 0.8 mM, 4p 0.4 mM, 4bc 1.0 mM, 4x 0.8 mM, monastrol 1.0 mM; for CD44+/CD24+ subpopulation, MDA-MB-231 (mean ± SEM): control 1.507 ± 0.47
Protocol: as §2

MDA-MB-231 cells [9] = assay: Apoptosis and necrosis assay (Annexin-V/PI flow cytometry), MDA-MB-231; format: cell-based, human; details: 72 h; 4m 1.0 mM, 4bt 0.8 mM, 4p 0.4 mM, 4bc 1.0 mM, 4x 0.8 mM
Protocol: as §3

[10] = tested on: Fibroblasts (primary culture from healthy human dental pulp)
Protocol: MCF-7 cell line and primary culture of connective tissue cells were provided by the Laboratory of Morphology, University of Brasília (Brasília, BR). MDA-MB-231 cells were purchased from Rio de Janeiro Cell Bank (RJCB - Rio de Janeiro, BR). Cell line characterization and authentication was conducted by RJCB using short tandem repeat profiling. Primary culture cells were taken from healthy human dental pulp predominantly consisting of fibroblasts and were used as normal control cells. MCF-7 cells and fibroblasts were grown in complete DMEM and maintained at 37°C with 5% CO2. MDA-MB-231 cells were grown in Leibovitz L15 medium at 37°C without CO2. Culture media were supplemented with 10% fetal bovine serum and 25 μg/mL of gentamicin.
Cytotoxicity was determined using 3-(4,5-dimethylthiazol-2-yl)-2,5-diphenylterazolium bromide (MTT) according to the manufacturer’s instructions. Absorbance readings were measured by a spectrophotometer. Cell viability was normalized to control (vehicle only).

[11] = MCF-7, 24 h, 4m 1.0 mM, 4bt 0.8 mM, 4p 0.4 mM, 4bc 1.0 mM, 4x 0.8 mM
[12] = all concentrations tested 100 μM – 1.00 mM, 72 h

Row | Compound | Monoastral Spindle (%) 24 h (MCF-7 cells [1]; [11]) | Bipolar Spindle (%) 24 h (MCF-7 cells [1]; MCF-7, 24 h) | Bipolar Spindle (%) 48 h (MCF-7 cells [1]) | Monoastral Spindle (%) 48 h (MCF-7 cells [1]) | CD44-/CD24- subpopulation, MCF-7 (mean ± SEM) (MCF-7 cells [3]) | CD44+/CD24+ subpopulation, MCF-7 (mean ± SEM) (MCF-7 cells [3]) | CD44-/CD24+ subpopulation, MCF-7 (mean ± SEM) (MCF-7 cells [3]) | CD44+/CD24- subpopulation, MCF-7 (mean ± SEM) (MCF-7 cells [3]) | CD44-/CD24- subpopulation, MDA-MB-231 (mean ± SEM) (MDA-MB-231 cells [8]) | CD44-/CD24+ subpopulation, MDA-MB-231 (mean ± SEM) (MDA-MB-231 cells [8]; concentrations as E32) | CD44+/CD24+ subpopulation, MDA-MB-231 (mean ± SEM) (MDA-MB-231 cells [8]; concentrations as E32) | other results
1 | CC1(C)CC(=O)C2=C(C1)NC(=S)NC2c1cccc(O)c1 (stereo not shown) [Compound 4bt, Dimethylenastron] | 99.35% | 0.65% | 20% | 80% | 3.09 ± 0.46% | 61.97 ± 19.91% | 34.92 ± 19.45% | 0.005 ± 0.005% | 0.01 ± 0.00% | 0.0 ± 0.0% | 52.14 ± 10.60% | Mitotic spindle / microtubule organization (α-tubulin immunostaining) (MCF-7 cells [1]; [11]): caused monoastral spindle formation; HUVEC tube formation (pattern recognition / morphology) (HUVEC cells): more pronounced anti-angiogenic morphological aspect; IC50 (MCF-7 cells [2]; MCF7, 72 h): 127 µM; Effect on cell viability, MCF-7 (MCF-7 cells [2]; [12]): significant decrease in cell viability; Cell cycle effect, MCF-7, 48 h (MCF-7 cells [4]): decrease of cells in G2/M and an increase of cells in S phase; IC50 (MDA-MB-231 cells [5]; MDA-MB-231, 72 h): 17.9 µM; Effect on cell viability, MDA-MB-231 (MDA-MB-231 cells [5]; [12]): significant decrease in cell viability; Morphological alterations, MCF-7 (MCF-7 cells [6]): produced the same results; Cell death by apoptosis, % of MCF-7 cell population (MCF-7 cells [7]): 39%; Cell death by apoptosis, % of MDA-MB-231 cell population (MDA-MB-231 cells [9]): 83%; Maximum non-cytotoxic concentration to normal cells ([10]; fibroblasts, 72 h treatment, MTT): 0.8 mM
2 | CCOC(=O)C1=C(C)NC(=S)NC1c1cccc(O)c1 (stereo not shown) [Monastrol, reference compound] | 97.66% | 2.33% | 8% | 92% | 1.64 ± 0.43% | 29.53 ± 5.30% | 68.56 ± 5.93% | 0.2400 ± 0.20% | 0.00 ± 0.003% | 0.007 ± 0.003% | 15.56 ± 6.96% | IC50 (MCF-7 cells [2]; MCF7, 72 h treatment, MTT): 110 µM; IC50 (MDA-MB-231 cells [5]; MDA-MB-231, 72 h treatment, MTT): 114 µM; CD44+/CD24- subpopulation, MDA-MB-231 (mean ± SEM) (MDA-MB-231 cells [8]; concentrations as E32, untreated control 98.45 ± 0.47): 84.41 ± 6.97%; Maximum non-cytotoxic concentration to normal cells ([10]; human, 72 h): 1.0 mM
